Measurements reported in US5962487A, “Antipicornaviral compounds and methods for their use and preparation” (Agouron Pharmaceuticals, Inc., priority 1997, dated 1999).

Experiments:
[1] = molecular target: T1, Rhinovirus 3C protease (RVP) serotype-14 (Human rhinovirus 14, UniProt P03303); experiment: Inhibition of Rhinovirus Protease, serotype 14 (FRET assay); type: biochemical; conditions: for kinact/KI: read-out: kobs/I; for Ki: RVP serotype-14, 10 minute preincubation with 50 nM RVP prior to addition of substrate, read-out: INHIB (Ki)
T1 construct: Recombinant Rhinovirus 3C proteases from serotypes 14, 16, 2 or 89 were prepared; made in house
Description: (§1) Stock solutions (50 mM, in DMSO) of various compounds were prepared; dilutions were in the same solvent. Recombinant Rhinovirus 3C proteases from serotypes 14, 16, 2 or 89 were prepared by the following standard chromatographic procedures: (1) ion exchange using Q Sepharose Fast Flow from Pharmacia; (2) affinity chromatography using Affi-Gel Blue from Biorad; and (3) sizing using Sephadex G-100 from Pharmacia. Assays contained 2% DMSO, 50 mM tris pH 7.6, 1 mM EDTA, a compound at the indicated concentrations, approximately 1 μM substrate, and 50-100 nM protease. For Ki determinations, the compound and the enzyme were preincubated for 10 minutes at 30° C. prior to addition of the substrate (substrate start). The kobs/I values were obtained from reactions initiated by addition of enzyme rather than substrate. RVP activity is measured in the fluorescence resonance energy transfer assay. The substrate was (N-terminal) DABCYL-(Gly-Arg-Ala-Val-Phe-Gln-Gly-Pro-Val-Gly)-EDANS. In the uncleaved peptide, the EDANS fluorescence was quenched by the proximal DABCYL moiety. When the peptide was cleaved, the quenching was relieved, and activity was measured as an increase in fluorescence signal.
(§2) In the above table, all data is for RVP serotype-14 unless otherwise noted in parentheses. All strains of human rhinovirus (HRV) were purchased from American Type Culture Collection (ATCC), except for serotype 14, which was produced from the infectious cDNA clone constructed and supplied to us by Dr. Roland Rueckert at the Institute for Molecular Virology, University of Wisconsin, Madison, Wis. The column designated INHIB represents the percent inhibition, with the concentration of the compound in μM indicated in parentheses, unless Ki was assigned as designated by (Ki), at 10 minute preincubation with 50 nM RVP prior to addition of substrate was used. The data in the column designated kobs/I was measured from progress curves in enzyme start experiments.

[2] = molecular target: T2, Rhinovirus 3C protease (RVP) serotype 2 (Human rhinovirus 2, UniProt P04936); experiment: Inhibition of Rhinovirus Protease, serotype 2 (FRET assay); type: biochemical; conditions: enzyme start experiments, read-out: kobs/I
T2 construct: Recombinant Rhinovirus 3C proteases from serotypes 14, 16, 2 or 89 were prepared; made in house
Description: as §1, §2

[3] = molecular target: T3, Rhinovirus 3C protease (RVP) serotype 16 (Human rhinovirus 16, UniProt Q82122); experiment: Inhibition of Rhinovirus Protease, serotype 16 (FRET assay); type: biochemical; conditions: enzyme start experiments, read-out: kobs/I
T3 construct: Recombinant Rhinovirus 3C proteases from serotypes 14, 16, 2 or 89 were prepared; made in house
Description: as §1, §2

[4] = tested on: HRV-14; experiment: Antirhinoviral HI-HeLa Cell Culture Assay (cell protection, XTT), HRV-14; type: cell-based, human rhinovirus; conditions: for TI: CC50/EC50, HRV serotype-14, 2880 min; for EC50: Rhinovirus B, HRV14, 48 h, HRV serotype-14 infected HI-HeLa cells, XTT, two days
Description: In the Cell Protection Assay, the ability of compounds to protect cells against HRV infection was measured by the XTT dye reduction method. This method is described in O. S. Weislow, R. Kiser, D. L. Fine, J. Bader, R. H. Shoemaker, and M. R. Boyd, J. Natl. Cancer Inst. 1989, 81, 577-586, which document is entirely incorporated herein by reference.
(§3) HI-HeLa cells were infected with HRV-14 (unless otherwise noted) at a multiplicity of infection (m.o.i.) of 0.13 (virus particles/cell) or mock-infected with medium only. Infected or mock-infected cells were resuspended at 8×10^5 cells per mL and incubated with appropriate concentrations of compounds of formulas I and II. Two days later, XTT/PMS was added to test plates, and the amount of formazan produced was quantified spectrophotometrically at 450/650 nm. The EC50 was calculated as the concentration of compound that increased the percentage of formazan production in compound-treated, virus-infected cells to 50% of that produced by compound-free mock-infected cells. The 50% cytotoxic dose (CC50) was calculated as the concentration of compound that decreased the percentage of formazan produced in compound-treated, mock-infected cells to 50% of that produced in compound-free, mock-infected cells. The therapeutic index (TI) was calculated by dividing the CC50 by the EC50.
(§4) All strains of human rhinovims (HRV) for use in this assay were purchased from American Type Culture Collection (ATCC), except for HRV serotype-14, which was produced from the infectious cDNA clone, constructed and supplied to us by Dr. Roland Rueckert at the Institute for Molecular Virology, University of Wisconsin, Madison, Wis. HRV stocks were propagated, and antiviral assays were performed in HI-HeLa (ATCC). Cells were grown in Minimal Essential Medium, available from Life Technologies, with 10% fetal bovine serum.
The compounds were tested against control compounds WIN 51711, WIN 52084, and WIN 54954, all obtained from Sterling-Winthrop Pharmaceuticals, and control compound Pirodavir, obtained from Janssen Pharmaceuticals. Antiviral data obtained for the test compounds are shown in Table 2 where all data are for HRV serotype-14 unless otherwise noted in parentheses.

[5] = in vitro; type: cell-based; conditions: human, hi-hela cells
Description: as §3, §4

T2 sequence (P04936 1508-1690): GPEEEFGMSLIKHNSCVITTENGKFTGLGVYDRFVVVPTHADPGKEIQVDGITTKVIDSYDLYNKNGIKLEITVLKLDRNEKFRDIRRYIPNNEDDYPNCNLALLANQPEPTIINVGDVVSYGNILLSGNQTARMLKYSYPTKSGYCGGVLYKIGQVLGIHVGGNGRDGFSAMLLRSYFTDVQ
T3 sequence (Q82122 1511-1693): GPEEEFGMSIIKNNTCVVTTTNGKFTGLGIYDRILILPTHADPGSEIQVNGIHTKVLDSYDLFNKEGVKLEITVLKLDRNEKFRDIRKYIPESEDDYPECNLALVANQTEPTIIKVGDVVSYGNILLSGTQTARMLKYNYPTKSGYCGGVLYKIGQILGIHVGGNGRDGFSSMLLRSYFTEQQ
T1 sequence (P03303 1538-1719): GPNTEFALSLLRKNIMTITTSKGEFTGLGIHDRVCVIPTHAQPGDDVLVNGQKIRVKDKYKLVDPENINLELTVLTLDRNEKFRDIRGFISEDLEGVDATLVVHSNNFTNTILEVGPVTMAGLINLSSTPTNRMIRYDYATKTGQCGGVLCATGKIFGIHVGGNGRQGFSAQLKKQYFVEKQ

Compound | kinact/KI [1] [M⁻¹ s⁻¹] | kinact/KI [2] [M⁻¹ s⁻¹] | kinact/KI [3] [M⁻¹ s⁻¹] | TI [4] | EC50 [4] [µM] | CC50 at 48 h [5] [µM] | Ki [1] [µM]
CCOC(=O)/C=C/[C@H](CCC(N)=O)NC(=O)[C@@H]1CCCCN1C(=O)[C@H](CC(C)C)NC(=O)OCc1ccccc1 [Compound 25, Ethyl-3-[CBZ-L-Leu-L-Pip-L-Gln]-E-Propenoate] | 1470 | 1280 | 770 | > 23 | 14 | > 320 | 
CCOC(=O)/C=C/[C@H](CCC(N)=O)NC(=O)[C@@H]1CCCN1C(=O)[C@H](CC(C)C)NC(=O)SCC [Compound 24, Ethyl-3-(Ethythiocarbonyl-L-Leu-L-Pro-L-Gln)-E-Propenoate] | 22000 | 7100 | 9300 | > 10 | 10 | > 100 | 8
CCOC(=O)/C=C/[C@H](CCC(N)=O)NC(=O)[C@H](Cc1ccccc1)N(C)C(=O)[C@@H](NC(=O)SCC)C(C)C [Compound 34, Ethyl-3-(Ethylthiocarbonyl-L-Val-L-N-Me-Phe-L-Gln)-E-Propenoate] | 13400 | 940 | 2060 | > 312 | 0.32 | > 100 | 
CCOC(=O)/C=C/[C@H](CCC(N)=O)NC(=O)[C@H](Cc1ccc(C)cc1)N(C)C(=O)[C@H](CCc1ccccc1)NC(=O)SCc1ccccc1 [Compound 13, Ethyl-3-[Benzylthiocarbonyl-L-hPhe-L-N-Me-(4-Me-Phe)-L-Gln] -E-Propenoate] | 356000 | 3980 | 11700 | 148 | 0.12 | 17.8 | 
CCOC(=O)/C=C/[C@H](CCC(N)=O)NC(=O)C1CNCCN1C(=O)[C@H](CC(C)C)NC(=O)OCc1ccccc1 (mixture of isomers) [Compound 27, Ethyl-3-(CBZ-L-Leu-DL-Pipz-L-Gln)-E-Propenoate] | 102 | 87 | 90 |  | > 320 | > 320 | 
CCOC(=O)/C(C)=C/[C@H](CCC(N)=O)NC(=O)[C@H](Cc1ccc(C)cc1)N(C)C(=O)[C@H](CCc1ccccc1)NC(=O)SCc1ccccc1 [Compound 14, Ethyl-2-Methyl-3-[Benylthiocarbonyl-L-hPhe-L-N-Me-(4-Me)-Phe-L-Gln]-E-Propenoate] | 56400 | 800 | 1800 | 49 | 0.32 | 15.8 | 0.8
CCOC(=O)/C=C/[C@H](CCC(N)=O)NC(=O)[C@@H]1CCc2ncc(NC(=O)OCc3ccccc3)c(=O)n21 [Compound 37, Ethyl-3-[(S)-3-(CBZ-Amino)4-Oxo-4,6,7,8-Tetrahydropyrrolo [1,2-α]Pyrimidine-6-L-Gln]-E-Propenoate] | 12400 | 2500 | 4000 | > 11 | 8.9 | > 100 | 
CCOC(=O)/C=C/[C@H](CCC(N)=O)NC(=O)[C@H](Cc1ccc(OC)cc1)N(C)C(=O)[C@H](CC(C)C)NC(=O)OCc1ccccc1 [Compound 3, Ethyl-3-[CBZ-L-Leu-L-N-Me-(OMe)-Tyr-L-Gln]-E-Propenoate] | 16600 | 292 | 929 | 232 | 0.18 | 41.7 | 12
CCOC(=O)/C=C/[C@H](CCC(N)=O)NC(=O)[C@H](Cc1ccccc1)N(C)C(=O)[C@H](CC(C)C)NC(=O)SCc1ccccc1 [Compound 15, Ethyl-3-(Benzylthiocarbonyl-L-Leu-L-N-Me-Phe-L-Gln)-E-Propenoate] | 36400 | 3500 | 5600 | 192 | 0.26 | 50.1 | 2.5
CCOC(=O)/C(C)=C/[C@H](CCC(N)=O)NC(=O)[C@H](Cc1ccccc1)N(C)C(=O)[C@H](CC(C)C)NC(=O)SCc1ccccc1 [Compound 16, Ethyl-2-Methyl-3-(Benzylthiocarbonyl-L-Leu-L-N-Me-Phe-L-Gln)-E-Propenoate] | 8300 | 600 | 1000 | 19 | 1.7 | 32 | 12
CCOC(=O)/C=C/[C@H](CCC(N)=O)NC(=O)[C@H](Cc1ccccc1)N(C)C(=O)[C@@H](NC(=O)SC1CCCC1)C(C)C [Compound 35, Ethyl-3-(Cyclopentylthiocarbonyl-L-Val-L-N-Me-PHe-L-Gln-)-E-Propenoate] | 22500 | 1600 | 3480 | > 526 | 0.19 | > 100 | 
CCSC(=O)N[C@@H](CC(C)C)C(=O)N(C)[C@@H](Cc1ccccc1)C(=O)N[C@H](/C=C/C(=O)N(C)OC)CCC(N)=O [Compound 36, N-Methoxy-N-Methyl-3-(Ethylthiocarbonyl-L-Leu-L-N-Me-Phe-L-Gln)-E-Propenamide] | 2000 | 400 | 750 | > 9 | 11.2 | > 100 | 
CCOC(=O)/C(C)=C/[C@H](CCC(N)=O)NC(=O)[C@H](Cc1ccccc1)N(C)C(=O)[C@H](CC(C)C)NC(=O)SCC(C)C [Compound 45] | 2300 |  |  | 32 | 1.78 | 56.2 | 
